What was measured:
[1] = molecular target: Matrix metalloproteinase-9 (Homo sapiens, UniProt P14780); experiment: Inhibition of matrix metalloprotease-9
[2] = molecular target: 72 kDa type IV collagenase (Homo sapiens, UniProt P08253); experiment: Inhibition of matrix metalloprotease-2
Chain of 72 kDa type IV collagenase (P08253 whole entry): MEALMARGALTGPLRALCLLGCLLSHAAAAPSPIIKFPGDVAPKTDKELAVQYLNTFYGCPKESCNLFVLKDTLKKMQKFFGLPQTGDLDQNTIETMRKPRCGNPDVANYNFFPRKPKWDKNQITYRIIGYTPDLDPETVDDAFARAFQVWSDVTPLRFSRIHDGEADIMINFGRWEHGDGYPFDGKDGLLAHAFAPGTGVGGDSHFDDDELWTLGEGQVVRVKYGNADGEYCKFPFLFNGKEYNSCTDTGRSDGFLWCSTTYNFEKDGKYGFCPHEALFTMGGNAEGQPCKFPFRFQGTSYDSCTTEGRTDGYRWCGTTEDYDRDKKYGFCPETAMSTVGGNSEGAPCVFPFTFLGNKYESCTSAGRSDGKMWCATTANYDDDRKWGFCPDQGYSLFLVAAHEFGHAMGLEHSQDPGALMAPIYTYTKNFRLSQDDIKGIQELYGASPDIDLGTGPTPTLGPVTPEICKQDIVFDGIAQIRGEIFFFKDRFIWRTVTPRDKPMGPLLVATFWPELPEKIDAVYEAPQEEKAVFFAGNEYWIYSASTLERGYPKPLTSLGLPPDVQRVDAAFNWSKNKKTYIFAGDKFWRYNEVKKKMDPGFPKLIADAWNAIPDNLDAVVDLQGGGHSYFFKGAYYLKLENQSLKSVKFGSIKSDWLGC

Chain of Matrix metalloproteinase-9 (P14780 whole entry): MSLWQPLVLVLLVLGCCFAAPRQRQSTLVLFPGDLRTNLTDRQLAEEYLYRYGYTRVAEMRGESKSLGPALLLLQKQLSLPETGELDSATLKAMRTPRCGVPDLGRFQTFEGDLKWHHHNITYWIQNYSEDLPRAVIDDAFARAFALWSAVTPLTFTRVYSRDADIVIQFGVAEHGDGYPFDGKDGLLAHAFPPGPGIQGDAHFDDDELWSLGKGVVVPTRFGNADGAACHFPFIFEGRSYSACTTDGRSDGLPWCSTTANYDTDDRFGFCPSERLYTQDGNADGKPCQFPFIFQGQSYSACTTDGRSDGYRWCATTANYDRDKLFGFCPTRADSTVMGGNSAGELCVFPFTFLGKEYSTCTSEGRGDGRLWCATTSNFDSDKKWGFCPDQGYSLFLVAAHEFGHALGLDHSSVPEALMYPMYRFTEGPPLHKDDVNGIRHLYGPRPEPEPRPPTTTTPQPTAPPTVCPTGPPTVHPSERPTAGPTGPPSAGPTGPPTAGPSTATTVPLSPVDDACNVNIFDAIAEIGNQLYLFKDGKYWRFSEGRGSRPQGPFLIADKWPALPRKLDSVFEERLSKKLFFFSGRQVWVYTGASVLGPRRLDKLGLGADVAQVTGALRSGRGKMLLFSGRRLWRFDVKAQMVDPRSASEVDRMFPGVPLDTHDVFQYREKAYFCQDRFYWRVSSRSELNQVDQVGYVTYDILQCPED

Row | SMILES | IC50 [1] | IC50 [2]
1 | COc1ccc(-c2cnc(-c3ccc(S(=O)(=O)NC(C(=O)NO)C(C)C)cc3)o2)cc1 (centres undefined) | 1000 nM | 1000 nM
2 | CNC(=O)[C@@H](CC(=O)[C@H](CC(C)C)[C@H](CSc1ccccc1)C(=O)NO)Cc1ccccc1 | 200 nM | 200 nM
3 | COc1ccc(-c2cnc(-c3ccc(S(=O)(=O)NC(CCC(=O)O)C(=O)O)cc3)s2)cc1 (centres undefined) | 50 nM | 50 nM
4 | COc1ccc(-c2cnc(-c3ccc(S(=O)(=O)NC(C(=O)NO)C(C)C)cc3)s2)cc1 (centres undefined) | 900 nM | 400 nM
5 | COc1ccc(-c2cnc(-c3ccc(S(=O)(=O)NC(C(=O)CCC(=O)O)C(C)C)cc3)o2)cc1 (centres undefined) | 10000 nM | 10000 nM
6 | COc1ccc(-c2cnc(-c3ccc(S(=O)(=O)NC(C(=O)O)C(C)C)cc3)o2)cc1 (centres undefined) | 1000 nM | 1000 nM
7 | COc1ccc(-c2cnc(-c3ccc(S(=O)(=O)NC(C(=O)O)C(C)C)cc3)s2)cc1 (centres undefined) | 700 nM | 200 nM

Source: ChEMBL document CHEMBL1137962, “New heteroarylbenzenesulphonamides as matrix metalloproteinase inhibitors” (Bioorg Med Chem Lett, 2004)
